Test results as given in patent US5620954A, “Peptide compositions and uses therefor” (Magainin Pharmaceuticals, Inc., priority 1995, dated 1997).

Experiments:
Test in all cases: Antibacterial assay, minimal inhibitory concentration (MIC), microtiter broth dilution
Type in all cases: cell-based
[1] = test system: S. aureus strain ATCC 25923; conditions: S. aureus ATCC 25923; Mueller Hinton broth; 16-20 hours at 37° C.
Source text: (§1) Table I, which follows, indicates the Minimal Inhibitory Concentration (MIC) in μg/ml of Peptides (SEQ ID NO:1) through (SEQ ID NO:27 ) against S. aureus strain ATCC 25923, P. aeruginosa strain ATCC 27853, and E.coli ATCC strain 25922. (Legend) The procedure for the antibacterial assay is based upon the guidelines of the National Committee for Clinical Laboratory Standards, Document M7-T2, Volume 8, No. 8, 1988. Stock solutions of the hereinabove described peptides in accordance with the present invention are prepared at a concentration of 512 μg/ml in sterile deionized distilled water and stored at -70° C. The stock peptide solution is diluted in serial dilutions (1:2) down the wells of a microtiter plate so that the final concentrations of peptides in the wells are 0.25, 0.50, 1, 2, 4, 8, 16, 32, 64, 128, and 256 μg/ml. 1-5×10^5 CFUs/ml of either S. aureus ATCC 25923, E. coli ATCC 25922, or P. aeruginosa ATCC 27853 were added to the wells in full strength Mueller Hinton broth (BBL 11443) from a mid-log culture. The inoculum is standardized spectrophotometrically at 600 nm and is verified by colony counts. The plates are incubated for 16-20 hours at 37° C., and the minimal inhibitory concentration (MIC) for each peptide is determined. Minimal inhibitory concentration is defined as the lowest concentration of peptide which produces a clear well in the microtiter plate.

E.coli ATCC strain 25922 = conditions: E. coli ATCC 25922; Mueller Hinton broth; 16-20 hours at 37° C.
Source text: as §1

[2] = test system: P. aeruginosa strain ATCC 27853; conditions: P. aeruginosa ATCC 27853; Mueller Hinton broth; 16-20 hours at 37° C.
Source text: as §1

With “SEQ ID NO: 22: biologically active amphiphilic peptide (GFGSFLGKALKAALKIGANLLGGTPQQ)” the “Minimal Inhibitory Concentration (MIC), Activity, S. aureus” value [1] was 16 µg/mL, the “Minimal Inhibitory Concentration (MIC), Activity, E. coli” value (E.coli ATCC strain 25922) was 8,16 μg/ml and the “Minimal Inhibitory Concentration (MIC), Activity, P. aeruginosa” value [2] was 16,32 μg/ml.

“SEQ ID NO: 26: biologically active amphiphilic peptide (GLASFLGKALKAALKIGANLLGGTPQQ)” was tested, and the “Minimal Inhibitory Concentration (MIC), Activity, S. aureus” value [1] was 16,32 μg/ml, the “Minimal Inhibitory Concentration (MIC), Activity, E. coli” value (E.coli ATCC strain 25922) was 8,16 μg/ml and the “Minimal Inhibitory Concentration (MIC), Activity, P. aeruginosa” value [2] was 64,128 μg/ml.

In the case of “SEQ ID NO: 25: biologically active amphiphilic peptide (GFKKFLGKALKAALKIGANLLGGTPQQ)”, the “Minimal Inhibitory Concentration (MIC), Activity, S. aureus” value [1] is reported as 8,16 μg/ml, the “Minimal Inhibitory Concentration (MIC), Activity, E. coli” value (E.coli ATCC strain 25922) is reported as 8,32 μg/ml and the “Minimal Inhibitory Concentration (MIC), Activity, P. aeruginosa” value [2] is reported as 32 µg/mL.

For “SEQ ID NO: 23: biologically active amphiphilic peptide (GFAKFLGKALKAALKIGANLLGGTPQQ)”, the “Minimal Inhibitory Concentration (MIC), Activity, S. aureus” value [1] was 8 µg/mL, the “Minimal Inhibitory Concentration (MIC), Activity, E. coli” value (E.coli ATCC strain 25922) was 4,8 μg/ml and the “Minimal Inhibitory Concentration (MIC), Activity, P. aeruginosa” value [2] was 8,16 μg/ml.

In the case of “SEQ ID NO: 21: biologically active amphiphilic peptide (GLASLLGKALKAALKIGANMLGGSPQQ)”, the “Minimal Inhibitory Concentration (MIC), Activity, S. aureus” value [1] is reported as 64 µg/mL, the “Minimal Inhibitory Concentration (MIC), Activity, E. coli” value (E.coli ATCC strain 25922) is reported as 32 µg/mL and the “Minimal Inhibitory Concentration (MIC), Activity, P. aeruginosa” value [2] is reported as 128 µg/mL.

With “SEQ ID NO: 27: biologically active amphiphilic peptide (GLASLLGKALKAALKIGANLLGGTPQQ)” the “Minimal Inhibitory Concentration (MIC), Activity, S. aureus” value [1] was 32 µg/mL, the “Minimal Inhibitory Concentration (MIC), Activity, E. coli” value (E.coli ATCC strain 25922) was 32 µg/mL and the “Minimal Inhibitory Concentration (MIC), Activity, P. aeruginosa” value [2] was 128 µg/mL.

For “SEQ ID NO: 24: biologically active amphiphilic peptide (GFGKFLGKALKAALKIGANLLGGTPQQ)”, the “Minimal Inhibitory Concentration (MIC), Activity, S. aureus” value [1] was 8 µg/mL, the “Minimal Inhibitory Concentration (MIC), Activity, E. coli” value (E.coli ATCC strain 25922) was 8,16 μg/ml and the “Minimal Inhibitory Concentration (MIC), Activity, P. aeruginosa” value [2] was 16 µg/mL.
